Target: T1, human mPGES-1 (Homo sapiens, UniProt O14684)
T1 construct: expressed in transfected cells; host or cells: CHO-K1 cells, transiently transfected; microsomal fraction used
T1 sequence (O14684 1-152): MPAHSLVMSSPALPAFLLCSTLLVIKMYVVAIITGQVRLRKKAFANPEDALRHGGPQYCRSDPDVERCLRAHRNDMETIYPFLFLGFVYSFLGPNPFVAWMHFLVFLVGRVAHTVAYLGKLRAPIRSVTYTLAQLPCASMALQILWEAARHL
Assay: Microsomal Prostaglandin E Synthase Assay
Type: biochemical
Conditions: microsomal fractions from CHO-K1 cells transiently transfected with human mPGES-1 cDNA; 1 μM PGH2; PGE2 by EIA; average of at least n=3; read-out: h-CHO (nM), potency expressed as IC50
Procedure: Compounds are tested as inhibitors of prostaglandin E synthase activity in microsomal prostaglandin e synthases, whole cell and in vivo assays. These assays measure prostaglandin E2 (PGE2) synthesis using either Enzymatic Immunoassay (EIA) or mass spectrometry. Cells used for microsomal preparation are CHO-K1 cells transiently transfected with plasmids encoding the human mPGES-1 cDNA. Cells used for cell-based experiments are human A549 (which express human mPGES-1). Guinea pigs are used to test the activity of selected compounds in vivo. In all these assays, 100% activity is defined as the PGE2 production in vehicle-treated samples. IC50 and ED50 represent the concentration or dose of inhibitor required to inhibit PGE2 synthesis by 50% as compared to the uninhibited control.
Prostaglandin E synthase microsomal fractions are prepared from CHO-K1 cells transiently transfected with plasmid encoding the human mPGES-1 cDNA. Microsomes are then prepared and the PGES assay begins with the incubation of 5 μg/ml microsomal PGES-1 with compound or DMSO (final 1%) for 20-30 minutes at room temperature. The enzyme reactions are performed in 200 mM KPi pH 7.0, 2 mM EDTA and 2.5 mM GSH-reduced form. The enzymatic reaction is then initiated by the addition of 1 μM final PGH2 substrate prepared in isopropanol (3.5% final in assay well) and incubated at room temperature for 30 seconds. The reaction is terminated by the addition of SnCl2 in 1N HCl (1 mg/ml final). Measurement of PGE2 production in the enzyme reaction aliquots is done by EIA using a standard commercially available kit (Cat #: 901-001 from Assay Designs).
The potency is expressed as IC50 and the value indicated is an average of at least n=3.

| SMILES | IC50 [nM] |
| --- | --- |
| Fc1cccc(Cl)c1-c1nc2c3ccccc3c3sc(Cl)cc3c2[nH]1 [Example 2] | 10.5 |
| N#Cc1cccc(C#N)c1-c1nc2c3ccc(Cl)cc3c3ccoc3c2[nH]1 [Example 12] | 3.2 |
| Fc1cccc(Cl)c1-c1nc2c3ccc(Cl)cc3c3cc(Br)sc3c2[nH]1 [Example 15] | 1.8 |
| CC(C)(O)C#Cc1ccc2c(c1)c1c(Cl)c(Cl)sc1c1[nH]c(-c3c(C#N)cccc3C#N)nc21 [Example 28] | 1.5 |

Reference: US20090209571A1, “Phenanthrene derivatives as MPGES-1 inhibitors” (priority 2006, published 2009)
